Assay results reported in US9815796B2 (Merck Sharp & Dohme Corp., priority 2013, dated 2017).

Target: human PDE2A1 (Homo sapiens (Human), UniProt O00408)
Experiment: IMAP FP PDE selectivity panel, human PDE2A1
Type: biochemical
Conditions: Human PDE2, Lab B; read-out: Human PDE2 Ki (nM) - Lab B
In short: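 GST-tagged human PDE2A1 expressed in insect cells, run at room temperature for 60 min with 50 nM FAM-cAMP containing 1000 nM cGMP, pH 7.2 Tris/MgCl2 buffer. IMAP fluorescence polarization read after binding step.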

Sequence of human PDE2A1 (O00408 other isoform, or with tags, fused parts or gaps): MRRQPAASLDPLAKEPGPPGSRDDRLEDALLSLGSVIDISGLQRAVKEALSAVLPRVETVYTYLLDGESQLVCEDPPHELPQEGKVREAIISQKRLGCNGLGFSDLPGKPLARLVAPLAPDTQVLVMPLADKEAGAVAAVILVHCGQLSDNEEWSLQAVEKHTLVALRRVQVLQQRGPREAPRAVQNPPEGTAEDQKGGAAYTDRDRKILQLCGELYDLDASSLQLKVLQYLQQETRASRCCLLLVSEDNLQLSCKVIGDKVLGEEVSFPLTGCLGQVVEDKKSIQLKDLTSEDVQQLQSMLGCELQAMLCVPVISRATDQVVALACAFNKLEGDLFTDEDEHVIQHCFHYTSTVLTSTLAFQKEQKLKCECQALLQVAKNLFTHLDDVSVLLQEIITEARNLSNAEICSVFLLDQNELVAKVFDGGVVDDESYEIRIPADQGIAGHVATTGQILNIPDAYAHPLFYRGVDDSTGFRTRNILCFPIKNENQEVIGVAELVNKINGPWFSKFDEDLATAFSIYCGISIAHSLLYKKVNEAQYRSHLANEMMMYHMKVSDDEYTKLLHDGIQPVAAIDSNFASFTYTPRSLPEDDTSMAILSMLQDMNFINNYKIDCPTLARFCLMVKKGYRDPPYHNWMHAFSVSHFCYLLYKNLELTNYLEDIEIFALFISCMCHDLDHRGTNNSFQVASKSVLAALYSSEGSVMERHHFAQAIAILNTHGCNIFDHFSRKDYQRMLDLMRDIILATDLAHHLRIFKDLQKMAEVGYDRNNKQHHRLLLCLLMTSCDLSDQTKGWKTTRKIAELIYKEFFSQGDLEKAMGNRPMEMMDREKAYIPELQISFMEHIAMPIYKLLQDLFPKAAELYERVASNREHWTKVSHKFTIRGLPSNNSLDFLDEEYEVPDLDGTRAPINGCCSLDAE

Ki | SMILES
8.9 nM | CC(C)(C)[C@@H](NC(=O)c1cc(=O)[nH]c(-c2ncccn2)n1)c1ccc(C2CC2)cc1 [Example 557, N-[(1R)-1-(4-cyclopropylphenyl)-2,2-dimethylpropyl]-6-oxo-1,6-dihydro-2,2′-bipyrimidine-4-carboxamide]
35 nM | CC(C)(C)[C@@H](NC(=O)c1cc(=O)[nH]c(-c2ncccn2)n1)c1ccc(CC(F)(F)F)cc1 [Example 558, N-[(1R)-2,2-dimethyl-1-[4-(2,2,2-trifluoroethyl)phenyl]propyl}-6-oxo-1,6-dihydro-2,2′-bipyrimidine-4-carboxamide]
128 nM | O=C(N[C@@H](c1ccc(OC(F)F)cc1)C1CC1)c1cc(=O)[nH]c(-c2ncccn2)n1 [Example 559, N-{(R)-cyclopropyl[4-(difluoromethoxy)phenyl]methyl}-6-oxo-1,6-dihydro-2,2′-bipyrimidine-4-carboxamide]
5.1 nM | CC(C)[C@@H](NC(=O)c1cc(=O)[nH]c(-c2ncccn2)n1)c1ccc(C2CC2)c(F)c1 [Example 560, N-[(1R)-1-(4-cyclopropyl-3-fluorophenyl)-2-methylpropyl]-6-oxo-1,6-dihydro-2,2′-bipyrimidine-4-carboxamide]
202 nM | CC(C)C(C)(NC(=O)c1cc(=O)[nH]c(-c2ncccn2)n1)c1ccc(S(F)(F)(F)(F)F)cc1 (stereo not drawn) [Example 561, N-{1,2-dimethyl-1-[4-(pentafluoro-λ^6-sulfanyl)phenyl]propyl}-6-oxo-1,6-dihydro-2,2′-bipyrimidine-4-carboxamide]
4.3 nM | CC(C)c1ccc([C@H](NC(=O)c2cc(=O)[nH]c(-c3ncccn3)n2)C2(C)CC2)cc1 [Example 562, N-{(R)-(1-methylcyclopropyl)[4-(1-methylethyl)phenyl]methyl}-6-oxo-1,6-dihydro-2,2′-bipyrimidine-4-carboxamide]
27 nM | CC(C)(C)c1ccc([C@H](NC(=O)c2cc(=O)[nH]c(-c3ncccn3)n2)C2(C)CC2)cc1 [Example 563, N-[(R)-(4-tert-butylphenyl)(1-methylcyclopropyl)methyl]-6-oxo-1,6-dihydro-2,2′-bipyrimidine-4-carboxamide]
6.7 nM | CC1([C@@H](NC(=O)c2cc(=O)[nH]c(-c3ncccn3)n2)c2ccc(S(F)(F)(F)(F)F)cc2)CC1 [Example 564, N-{(R)-(1-methylcyclopropyl)[4-(pentafluoro-λ^6-sulfanyl)phenyl]methyl}-6-oxo-1,6-dihydro-2,2′-bipyrimidine-4-carboxamide]
7 nM | CC(C)(C)[C@@H](NC(=O)c1cc(=O)[nH]c(-c2ncccn2)n1)c1ccc(C(F)(F)F)cc1F [Example 565, N-{(1R)-1-[2-fluoro-4-(trifluoromethyl)phenyl]-2,2-dimethylpropyl}-6-oxo-1,6-dihydro-2,2′-bipyrimidine-4-carboxamide]
4.3 nM | CC(C)(C)[C@@H](NC(=O)c1cc(=O)[nH]c(-c2ncccn2)n1)c1ccc(S(F)(F)(F)(F)F)cc1 [Example 566, N-{(1R)-2,2-dimethyl-1-[4-(pentafluoro-λ^6-sulfanyl)phenyl]propyl}-6-oxo-1,6-dihydro-2,2′-bipyrimidine-4-carboxamide]
49 nM | CC(C)(C)[C@@H](NC(=O)c1cc(=O)[nH]c(-c2ncccn2)n1)c1ccc(C(F)(F)F)c([N+](=O)[O-])c1 [Example 567, N-{(1R)-2,2-dimethyl-1-[3-nitro-4-(trifluoromethyl)phenyl]propyl}-6-oxo-1,6-dihydro-2,2′-bipyrimidine-4-carboxamide]
96 nM | CC(C)(NC(=O)c1cc(=O)[nH]c(-c2ncccn2)n1)c1ccc(C(F)(F)F)cc1Cl [Example 568, N-{1-[2-chloro-4-(trifluoromethyl)phenyl]-1-methylethyl}-6-oxo-1,6-dihydro-2,2′-bipyrimidine-4-carboxamide]
139 nM | Cc1cc(C(F)(F)F)ccc1C(C)(C)NC(=O)c1cc(=O)[nH]c(-c2ncccn2)n1 [Example 569, N-{1-methyl-1-[2-methyl-4-(trifluoromethyl)phenyl]ethyl}-6-oxo-1,6-dihydro-2,2′-bipyrimidine-4-carboxamide]
21 nM | O=C(NC1(c2ccc(S(F)(F)(F)(F)F)cc2)CC1)c1cc(=O)[nH]c(-c2ncccn2)n1 [Example 570, 6-oxo-N-{1-[4-(pentafluoro-λ^6-sulfanyl)phenyl]cyclopropyl}-1,6-dihydro-2,2′-bipyrimidine-4-carboxamide]
71 nM | O=C(NC1(c2ccc3c(c2)OC(F)(F)O3)CC1)c1cc(=O)[nH]c(-c2ncccn2)n1 [Example 571, N-[1-(2,2-difluoro-1,3-benzodioxol-5-yl)cyclopropyl]-6-oxo-1,6-dihydro-2,2′-bipyrimidine-4-carboxamide]
741 nM | COc1cc(C(F)(F)F)ccc1C(C)(C)NC(=O)c1cc(=O)[nH]c(-c2ncccn2)n1 [Example 572, N-{1-[2-methoxy-4-(trifluoromethyl)phenyl]-1-methylethyl}-6-oxo-1,6-dihydro-2,2′-bipyrimidine-4-carboxamide]
88 nM | CC(C)(NC(=O)c1cc(=O)[nH]c(-c2ncccn2)n1)c1ccc(C(F)(F)F)cc1F [Example 573, N-{1-[2-fluoro-4-(trifluoromethyl)phenyl]-1-methylethyl}-6-oxo-1,6-dihydro-2,2′-bipyrimidine-4-carboxamide]

Ki | SMILES
831 nM | CC(C)(NC(=O)c1cc(=O)[nH]c(-c2ncccn2)n1)c1ccc(OC(F)(F)F)cc1F [Example 574, N-{1-[2-fluoro-4-(trifluoromethoxy)phenyl]-1-methylethyl}-6-oxo-1,6-dihydro-2,2′-bipyrimidine-4-carboxamide]
65 nM | CC(C)(C)c1ccc(C2(NC(=O)c3cc(=O)[nH]c(-c4ncccn4)n3)CC2)cc1 [Example 575, N-[1-(4-tert-butylphenyl)cyclopropyl]-6-oxo-1,6-dihydro-2,2′-bipyrimidine-4-carboxamide]
32 nM | CC(C)c1ccc(C2(NC(=O)c3cc(=O)[nH]c(-c4ncccn4)n3)CC2)cc1 [Example 576, N-{1-[4-(1-methylethyl)phenyl]cyclopropyl}-6-oxo-1,6-dihydro-2,2′-bipyrimidine-4-carboxamide]
287 nM | CC(C)(NC(=O)c1cc(=O)[nH]c(-c2ncccn2)n1)c1ccc(SC(F)(F)F)cc1 [Example 577, N-(1-methyl-1-{4-[(trifluoromethyl)sulfanyl]phenyl}ethyl)-6-oxo-1,6-dihydro-2,2′-bipyrimidine-4-carboxamide]
104 nM | O=C(NC1(c2ccc(CC(F)(F)F)cc2)CC1)c1cc(=O)[nH]c(-c2ncccn2)n1 [Example 578, 6-oxo-N-{1-[4-(2,2,2-trifluoroethyl)phenyl]cyclopropyl}-1,6-dihydro-2,2′-bipyrimidine-4-carboxamide]
37 nM | O=C(NC1(c2ccc(C(F)(F)F)cc2F)CC1)c1cc(=O)[nH]c(-c2ncccn2)n1 [Example 579, N-{1-[2-fluoro-4-(trifluoromethyl)phenyl]cyclopropyl}-6-oxo-1,6-dihydro-2,2′-bipyrimidine-4-carboxamide]
38 nM | CC(C)[C@@H](NC(=O)c1cc(=O)[nH]c(-c2ncccn2)n1)c1ccc(OC(F)(F)F)c(Br)c1 [Example 580, N-{(1R)-1-[3-bromo-4-(trifluoromethoxy)phenyl]-2-methylpropyl}-6-oxo-1,6-dihydro-2,2′-bipyrimidine-4-carboxamide]
13 nM | O=C(N[C@@H](c1ccc(C2CC2)c(F)c1)C1CC1)c1cc(=O)[nH]c(-c2ncccn2)n1 [Example 581, N-[(R)-cyclopropyl(4-cyclopropyl-3-fluorophenyl)methyl]-6-oxo-1,6-dihydro-2,2′-bipyrimidine-4-carboxamide]
10 nM | CC1([C@@H](NC(=O)c2cc(=O)[nH]c(-c3ncccn3)n2)c2ccc(C(F)(F)F)cc2)CC1 [Example 582, N-{(R)-(1-methylcyclopropyl)[4-(trifluoromethyl)phenyl]methyl}-6-oxo-1,6-dihydro-2,2′-bipyrimidine-4-carboxamide]
8 nM | CC1([C@@H](NC(=O)c2cc(=O)[nH]c(-c3ncccn3)n2)c2ccc(C(F)(F)F)c(F)c2)CC1 [Example 583, N-[(R)-[3-fluoro-4-(trifluoromethyl)phenyl](1-methylcyclopropyl)methyl]-6-oxo-1,6-dihydro-2,2′-bipyrimidine-4-carboxamide]
36 nM | CC1([C@@H](NC(=O)c2cc(=O)[nH]c(-c3ncccn3)n2)c2ccc(OC(F)F)cc2)CC1 [Example 584, N-[(R)-[4-(difluoromethoxy)phenyl](1-methylcyclopropyl)methyl]-6-oxo-1,6-dihydro-2,2′-bipyrimidine-4-carboxamide]
39 nM | CC1([C@@H](NC(=O)c2cc(=O)[nH]c(-c3ncccn3)n2)c2ccc3c(c2)OC(F)(F)O3)CC1 [Example 585, N-[(R)-(2,2-difluoro-1,3-benzodioxol-5-yl)(1-methylcyclopropyl)methyl]-6-oxo-1,6-dihydro-2,2′-bipyrimidine-4-carboxamide]
19 nM | CC(C)(C)[C@@H](NC(=O)c1cc(=O)[nH]c(-c2ncccn2)n1)c1ccc2c(c1)OC(F)(F)O2 [Example 586, N-[(1R)-1-(2,2-difluoro-1,3-benzodioxol-5-yl)-2,2-dimethylpropyl]-6-oxo-1,6-dihydro-2,2′-bipyrimidine-4-carboxamide]
71 nM | C[C@@H](NC(=O)c1cc(=O)[nH]c(-c2ncccn2)n1)c1ccc2c(c1)OC(F)(F)O2 [Example 587, N-[(1R)-1-(2,2-difluoro-1,3-benzodioxol-5-yl)ethyl]-6-oxo-1,6-dihydro-2,2′-bipyrimidine-4-carboxamide]
303 nM | CC(C)(NC(=O)c1cc(=O)[nH]c(-c2ncccn2)n1)c1ccc2c(c1)OC(F)(F)O2 [Example 588, N-[1-(2,2-difluoro-1,3-benzodioxol-5-yl)-1-methylethyl]-6-oxo-1,6-dihydro-2,2′-bipyrimidine-4-carboxamide]
22 nM | CC(C)(C)[C@@H](NC(=O)c1cc(=O)[nH]c(-c2ncccn2)n1)c1ccc(OC(F)F)c(F)c1 [Example 589, N-{(1R)-1-[4-(difluoromethoxy)-3-fluorophenyl]-2,2-dimethylpropyl}-6-oxo-1,6-dihydro-2,2′-bipyrimidine-4-carboxamide]
